Some results are limits rather than exact numbers.

In this experiment the target is EED-EZH2 (Homo sapiens (Human), UniProt O75530). Briefly: EED-EZH2 AlphaScreen assay. Type of experiment: binding. As to conditions: 8.7 nM EZH2, 5.0 nM EED, read-out: IC50 Potency Code. The procedure: Biological activity of exemplary substituted pyrrolidones and piperidones was determined by the EED-EZH2 AlphaScreen assay according the following methodology.
EZH2 (non-complexed), His-GST-tags
Anti-FLAG AlphaLISA Acceptor Beads
AlphaScreen GSH Donor Beads
Assay Protocol (Calculated for 384 Wells or 1 Plate)
• 1. Thaw EED and EZH2 proteins on ice. • 2. Prepare 1× HMT Buffer 2: • 1.5 mL of 4× HMT Buffer 2+4.5 mL ddH2O. • 3. Prepare 1.2× EED-EZH2 solution in 1× HMT Buffer 2: 3.4 mL total • 2.1 uL of EED (0.41 mg/mL, 8.04 uM, 1:1608 dilution)+14 uL of EZH2 (0.24 mg/mL, 2.11 uM, 1:243 dilution)+3.384 mL of 1× HMT Buffer 2 • 4. Prepare 1.2× EZH2 solution in 1× HMT Buffer 2 (positive control): 0.168 mL total • 0.69 uL of EZH2 (0.24 mg/mL, 2.11 uM, 1:243 dilution)+167 uL of 1× HMT Buffer 2 • 5. Add 10 μL of 1.2× EED-EZH2 or 1.2× EZH2 solution to each well. • 6. Add compounds in DMSO via Echo transfer and 30 nL DMSO for control wells. • 7. Centrifuge at 15,000 rpm for 10 seconds and allow to incubate at rt for 1 hour. Step Two • 1. Prepare 6× Anti-FLAG and GSH Donor beads in 1× HMT Buffer 2 in the dark: 1 mL total • 10 uL of Anti-FLAG (1:100 dilution)+5 uL of GSH Donor (1:200 dilution)+985 uL of 1× HMT Buffer 2 • 2. Add 2 μL of bead solution to each well. • 3. Centrifuge at 15,000 rpm for 10 seconds and allow to incubate at rt for 1 hour in the dark. • 4. Read plate. Final Concentrations: • 12 μL volume per well • 8.7 nM EZH2 • 5.0 nM EED • DMSO<0.5% Calculations: • 1. Average EZH2 only wells (positive control) and subtract from all other wells. • 2. Average EED-EZH2 only wells (negative control) to indicate 100% signal or 0% inhibition. • 3. Normalize each well to the average 100% signal from step 2. • 4. Report either as normalized % inhibition or normalized % signal. • Use GraphPad to Calculate IC50.
In general terms: Alpha assays give light when donor and acceptor beads are brought close together.

Sequence of EED-EZH2 (O75530 2-441): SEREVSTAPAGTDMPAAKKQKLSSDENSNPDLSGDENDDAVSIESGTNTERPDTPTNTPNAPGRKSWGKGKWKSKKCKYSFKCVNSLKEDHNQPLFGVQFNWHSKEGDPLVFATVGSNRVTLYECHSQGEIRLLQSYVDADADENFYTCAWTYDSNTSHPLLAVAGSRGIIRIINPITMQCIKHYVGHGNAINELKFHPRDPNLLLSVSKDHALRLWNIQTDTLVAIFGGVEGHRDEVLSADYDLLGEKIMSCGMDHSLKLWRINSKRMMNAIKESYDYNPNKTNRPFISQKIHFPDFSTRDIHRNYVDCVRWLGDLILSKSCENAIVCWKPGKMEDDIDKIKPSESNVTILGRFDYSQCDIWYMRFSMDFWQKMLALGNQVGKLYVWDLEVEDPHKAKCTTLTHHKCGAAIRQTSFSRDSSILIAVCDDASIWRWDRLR

A word on the IC50: it is the concentration that gives 50% inhibition. Turning to `CC(=O)N1CCCC(CN2CC(NC(=O)c3cc(C)ccc3O)CC2=O)C1` (centres unmarked) [NUCC-0202970], the IC50 was 10 to 50 µM.

As for `Cc1ccc(O)c(C(=O)NC2CCC(=O)N(Cc3ccccc3C(F)(F)F)C2)c1` (centres unmarked) [NUCC-0202971], the IC50 fell in the range of 1 to 10 µM.

As to `COc1ccc(CN2C[C@@H](NC(=O)c3cc(C)ccc3O)CC2=O)c(OC)c1` [NUCC-0202972], the IC50 lay within 10 to 50 µM.

On to `Cc1ccc(O)c(C(=O)N[C@H]2CC(=O)N(Cc3ccccc3Cl)C2)c1` [NUCC-0202973], for which the IC50 was in the range of 10 to 50 µM.

As for `Cc1ccc(O)c(C(=O)N[C@H]2CC(=O)N(Cc3ccc(C(F)(F)F)cc3)C2)c1` [NUCC-0202974], the IC50 was above 50 µM.

Consider `Cc1ccc(O)c(C(=O)N[C@H]2CC(=O)N(Cc3ccc(Cl)c(Cl)c3)C2)c1` [NUCC-0202975], for which the IC50 lay within 10 to 50 µM.

On to `Cc1ccc(O)c(C(=O)N[C@H]2CC(=O)N(C3CCc4ccccc43)C2)c1` (some centres unmarked) [NUCC-0202976], for which the IC50 was above 50 µM.

As for `Cc1ccc(O)c(C(=O)N[C@@H]2CC(=O)N(Cc3ccc(Cl)c(Cl)c3)C2)c1` [NUCC-0202977], the IC50 is 10 to 50 µM.

For `Cc1ccc(O)c(C(=O)N[C@@H]2CC(=O)N(Cc3ccc(C(F)(F)F)cc3)C2)c1` [NUCC-0202978], the IC50 was above 50 µM.

Regarding `Cc1ccc(O)c(C(=O)N[C@H]2CC(=O)N(C3C=Cc4ccccc43)C2)c1` (some centres unmarked) [NUCC-0202979], the half-inhibitory concentration (IC50) lay within 10 to 50 µM.

For `O=C(N[C@H]1CC(=O)N(Cc2ccccc2C(F)(F)F)C1)c1cc(C(F)(F)F)ccc1O` [NUCC-0223624], the IC50 is below 1 µM.

As to `O=C(NC1CC(=O)N(Cc2cccc(C(F)(F)F)c2)C1)c1cc(C(F)(F)F)ccc1O` (centres unmarked) [NUCC-0223625], the half-inhibitory concentration (IC50) was below 1 µM.

`CC1(C)C(=O)N(Cc2ccccc2C(F)(F)F)C[C@H]1NC(=O)c1cc(C(F)(F)F)ccc1O` [NUCC-0223626]: the IC50 is 1 to 10 µM.

As for `O=C(NCC1CC(=O)N(Cc2ccccc2C(F)(F)F)C1)c1cc(C(F)(F)F)ccc1O` (centres unmarked) [NUCC-0223627], the IC50 is below 1 µM.

With `O=C(N[C@@H]1CC(=O)N(Cc2ccccc2C(F)(F)F)C1)c1cc(C(F)(F)F)ccc1O` [NUCC-0223628], the IC50 was below 1 µM.

`CC1(C)C(=O)N(Cc2ccccc2C(F)(F)F)CC1NC(=O)c1cc(C(F)(F)F)ccc1O` (centres unmarked) [NUCC-0223629]: the IC50 was in the range of 10 to 50 µM.

For `O=C1CC(Nc2ncnc3ccc(C(F)(F)F)cc23)CN1Cc1ccccc1C(F)(F)F` (centres unmarked) [NUCC-0223632], the IC50 is above 50 µM.

As for `Nc1ccc(C(F)(F)F)cc1C(=O)NC1CC(=O)N(Cc2ccccc2C(F)(F)F)C1` (centres unmarked) [NUCC-0223633], the IC50 is above 50 µM.

On to `Nc1ccc(F)cc1C(=O)NC1CC(=O)N(Cc2ccccc2C(F)(F)F)C1` (centres unmarked) [NUCC-0223634], for which the IC50 is above 50 µM.

For `Nc1ccc(Cl)cc1C(=O)NC1CC(=O)N(Cc2ccccc2C(F)(F)F)C1` (centres unmarked) [NUCC-0223635], the IC50 was above 50 µM.

`O=C(NC1CCC(=O)N(Cc2ccccc2C(F)(F)F)C1)c1cc(C(F)(F)F)ccc1O` (centres unmarked) [NUCC-0223818]: the IC50 was in the range of 1 to 10 µM.

For the molecule `O=C(NC1CCC(=O)N(Cc2ccccc2C(F)(F)F)C1)c1cc(Cl)ccc1O` (centres unmarked) [NUCC-0223819], the IC50 fell in the range of 1 to 10 µM.

With `O=C(NC1CCC(=O)N(Cc2ccccc2C(F)(F)F)C1)c1ccc(C(F)(F)F)cc1O` (centres unmarked) [NUCC-0223820], the IC50 was above 50 µM.

On to `O=C(NC1CCN(Cc2ccccc2C(F)(F)F)C1=O)c1cc(C(F)(F)F)ccc1O` (centres unmarked) [NUCC-0223821], for which the IC50 was below 1 µM.

As for `O=C(NC1CCN(Cc2ccccc2C(F)(F)F)C1=O)c1ccc(C(F)(F)F)cc1O` (centres unmarked) [NUCC-0223822], the IC50 is above 50 µM.

With `O=C(NC1CCN(Cc2ccccc2C(F)(F)F)C1=O)c1cccc(C(F)(F)F)c1O` (centres unmarked) [NUCC-0223823], the IC50 was above 50 µM.

As for `O=C(NC1CCN(Cc2ccccc2C(F)(F)F)C1=O)c1cc(Cl)ccc1O` (centres unmarked) [NUCC-0223824], the IC50 is above 50 µM.

On to `O=C1C(Nc2ncnc3ccc(C(F)(F)F)cc23)CCN1Cc1ccccc1C(F)(F)F` (centres unmarked) [NUCC-0223825], for which the IC50 is above 50 µM.

As for `O=C1CCC(Nc2ncnc3ccc(C(F)(F)F)cc23)CN1Cc1ccccc1C(F)(F)F` (centres unmarked) [NUCC-0223826], the IC50 was above 50 µM.

These data come from patent US11919855B2, “Substituted pyrrolidones and piperidones as small molecule inhibitors of EZH2 and EED protein binding” (Northwestern University, priority 2021, dated 2024).
